Assay: Tissue distribution of radioactivity by Quantitative Whole-Body Autoradiography (QWBA), Group 4
Assay type: in vivo
Settings: rat
Experimental: A study was conducted to determine the pharmacokinetics, rates and routes of excretion with mass baseline and tissue distribution of radioactivity, after a single intravenous dose administration of formula XIII (also referred to as [^14C]DAP) was administered to the rats by tail vein intravenous injection at a
The study was conducted on 19 male rats divided into 4 groups. The first group of 6 rats was used for blood collection (Group 1); the second group of 4 rats was used for urine, feces, cage rinses and wipes and carcasses collection (Group 2); the third group of 4 rats was used for expired air collection (Group 3); the fourth group of 5 rats was used for terminal blood/serum and tissue distribution by Quantitative Whole-Body Autoradiography (QWBA) (Group 4).
For Group 4, formula XIII (QWBA was run at 1, 8, 12, 24 and 72 hours post dose. After terminal blood collection, each euthanized animal was frozen in a hexane/dry ice bath and embedded in a 2% carboxymethylcellulose matrix according to MPI Research SOP ADME-112. The embedded carcasses were sectioned according to MPI Research SOP ADME-113 on a Leica CM3600 Cyromacrotome set to maintain −10 to −30° C. At least four fortified quality control standards of known radioactive concentration were placed into the frozen block prior to sectioning and used for section thickness quality control. The quality control standards were sectioned under the same conditions as the specimen. The intrasection and intersection variation of collected sections were determined by analyzing the quality control standards. Section variation must be less than 20% for quantitative analysis. Sections that were approximately 40μm thick were taken in the sagittal plane. Appropriate sections selected at various levels of interest in the block were collected to encompass the following tissues, organs, and biological fluids, where possible: adrenal gland, bladder (urinary) and contents (urine), blood (cardiac), bone, bone marrow, brain, eye, fat (brown), fat (white), heart, kidney, large intestine/cecum and contents, liver, lung, muscle, pancreas, prostate, salivary glands, skin, small intestine and contents, spleen, stomach and contents, testes, thymus, thyroid, mesenteric lymph nodes, and epididymis. A set of sections were mounted, exposed to phosphor imaging screens and scanned using the Storm 860 image acquisition system according to MPI Research SOP ADME-112. Quantification, relative to the calibration standards, were performed by image densitometry using MCID™ image analysis software according to MPI Research SOP ADME-114. A standard curve was constructed from the integrated response (MDC/mm2) and the nominal concentrations of the [^14C]Glucose calibration standards. Relative error should be less than 0.5 for each point on the curve. The concentrations of radioactivity were expressed as μCi/g and were converted to μg or ng-equivalents of DAP per gram of sample (μg- or ng-eq/g) using the specific activity of administered [^14C]DAP dose formulation. A lower limit of quantification (LLOQ) was applied to the data. The LLOQ was determined using the radioactive concentration of the lowest calibration standard used to generate a calibration curve divided by the specific activity of the dose formulation (μCi/ug). Artifacts, such as those produced by dislodged contents of the alimentary canal, were excluded from analysis during image analysis.

[2H]C1([2H])N(CCCNC(=O)[C@@H](N)CCCNC(=N)N)C([2H])([2H])C([2H])([2H])N(CCCNC(=O)[C@@H](N)CCCNC(=N)N)C1([2H])[2H] [formula XIII]
distribution to cartilage and tissues (autoradiograph) (1 hour post dose, FIG. 1): distribute very well to cartilage and tissues
localization in cartilage and tissues (autoradiograph) (after 8 hours, FIG. 2): no longer localized in all of the regions identifiable in FIG. 1
Concentration of Radioactivity in Bone marrow (single IV 2 mg/kg, 1 Hour): 6820 ng Equivalents [^14C]DAP/g
Concentration of Radioactivity in Cartilage (single IV 2 mg/kg, 1 Hour): 62602 ng Equivalents [^14C]DAP/g
Concentration of Radioactivity in Kidney (single IV 2 mg/kg, 1 Hour): 51966 ng Equivalents [^14C]DAP/g
Concentration of Radioactivity in Kidney (cortex) (single IV 2 mg/kg, 1 Hour): 55358 ng Equivalents [^14C]DAP/g
Concentration of Radioactivity in Kidney (medulla) (single IV 2 mg/kg, 1 Hour): 19308 ng Equivalents [^14C]DAP/g
Concentration of Radioactivity in Large intestinal contents (single IV 2 mg/kg, 1 Hour): BLQ (Below limit of quantitation (<172 ng equivalents [^14C]PER977/g))
Concentration of Radioactivity in Liver (single IV 2 mg/kg, 1 Hour): 6377 ng Equivalents [^14C]DAP/g
Concentration of Radioactivity in Small intestine (single IV 2 mg/kg, 1 Hour): 6838 ng Equivalents [^14C]DAP/g
Concentration of Radioactivity in Thymus (single IV 2 mg/kg, 1 Hour): 10420 ng Equivalents [^14C]DAP/g
Concentration of Radioactivity in Urinary bladder (single IV 2 mg/kg, 1 Hour): 26725 ng Equivalents [^14C]DAP/g
Concentration of Radioactivity in Urine (single IV 2 mg/kg, 1 Hour): 195176 ng Equivalents [^14C]DAP/g
Concentration of Radioactivity in Bone marrow (single IV 2 mg/kg, 8 Hours): 5524 ng Equivalents [^14C]DAP/g
Concentration of Radioactivity in Cartilage (single IV 2 mg/kg, 8 Hours): 13038 ng Equivalents [^14C]DAP/g
Concentration of Radioactivity in Kidney (single IV 2 mg/kg, 8 Hours): 43380 ng Equivalents [^14C]DAP/g
Concentration of Radioactivity in Kidney (cortex) (single IV 2 mg/kg, 8 Hours): 45541 ng Equivalents [^14C]DAP/g
Concentration of Radioactivity in Kidney (medulla) (single IV 2 mg/kg, 8 Hours): 3454 ng Equivalents [^14C]DAP/g
Concentration of Radioactivity in Large intestinal contents (single IV 2 mg/kg, 8 Hours): 510 ng Equivalents [^14C]DAP/g
Concentration of Radioactivity in Liver (single IV 2 mg/kg, 8 Hours): 3150 ng Equivalents [^14C]DAP/g
Concentration of Radioactivity in Small intestine (single IV 2 mg/kg, 8 Hours): 6643 ng Equivalents [^14C]DAP/g
Concentration of Radioactivity in Thymus (single IV 2 mg/kg, 8 Hours): 15093 ng Equivalents [^14C]DAP/g
Concentration of Radioactivity in Urinary bladder (single IV 2 mg/kg, 8 Hours): 1429 ng Equivalents [^14C]DAP/g
Concentration of Radioactivity in Urine (single IV 2 mg/kg, 8 Hours): 8374 ng Equivalents [^14C]DAP/g
Concentration of Radioactivity in Bone marrow (single IV 2 mg/kg, 12 Hours): 4948 ng Equivalents [^14C]DAP/g
Concentration of Radioactivity in Cartilage (single IV 2 mg/kg, 12 Hours): 7749 ng Equivalents [^14C]DAP/g
Concentration of Radioactivity in Cerebellum (single IV 2 mg/kg, 12 Hours): BLQ (Below limit of quantitation (<172 ng equivalents [^14C]PER977/g))
Concentration of Radioactivity in Cerebrum (single IV 2 mg/kg, 12 Hours): BLQ (Below limit of quantitation (<172 ng equivalents [^14C]PER977/g))
Concentration of Radioactivity in Gastric mucosa (single IV 2 mg/kg, 12 Hours): 2118 ng Equivalents [^14C]DAP/g
Concentration of Radioactivity in Kidney (single IV 2 mg/kg, 12 Hours): 40930 ng Equivalents [^14C]DAP/g
Concentration of Radioactivity in Kidney (cortex) (single IV 2 mg/kg, 12 Hours): 48959 ng Equivalents [^14C]DAP/g
Concentration of Radioactivity in Kidney (medulla) (single IV 2 mg/kg, 12 Hours): 2981 ng Equivalents [^14C]DAP/g
Concentration of Radioactivity in Large intestinal contents (single IV 2 mg/kg, 12 Hours): 4752 ng Equivalents [^14C]DAP/g
Concentration of Radioactivity in Liver (single IV 2 mg/kg, 12 Hours): 3330 ng Equivalents [^14C]DAP/g
Concentration of Radioactivity in Medulla (single IV 2 mg/kg, 12 Hours): BLQ (Below limit of quantitation (<172 ng equivalents [^14C]PER977/g))
Concentration of Radioactivity in Small intestine (single IV 2 mg/kg, 12 Hours): 9975 ng Equivalents [^14C]DAP/g
Concentration of Radioactivity in Spinal cord (single IV 2 mg/kg, 12 Hours): BLQ (Below limit of quantitation (<172 ng equivalents [^14C]PER977/g))
Concentration of Radioactivity in Stomach contents (single IV 2 mg/kg, 12 Hours): BLQ (Below limit of quantitation (<172 ng equivalents [^14C]PER977/g))
Concentration of Radioactivity in Thymus (single IV 2 mg/kg, 12 Hours): 14584 ng Equivalents [^14C]DAP/g
Concentration of Radioactivity in Urinary bladder (single IV 2 mg/kg, 12 Hours): 1095 ng Equivalents [^14C]DAP/g
Concentration of Radioactivity in Urine (single IV 2 mg/kg, 12 Hours): 5011 ng Equivalents [^14C]DAP/g
Concentration of Radioactivity in Bone marrow (single IV 2 mg/kg, 24 Hours): 1987 ng Equivalents [^14C]DAP/g
Concentration of Radioactivity in Eye (lens) (single IV 2 mg/kg, 24 Hours): BLQ (Below limit of quantitation (<172 ng equivalents [^14C]PER977/g))
Concentration of Radioactivity in Gastric mucosa (single IV 2 mg/kg, 24 Hours): 1438 ng Equivalents [^14C]DAP/g
Concentration of Radioactivity in Kidney (single IV 2 mg/kg, 24 Hours): 39548 ng Equivalents [^14C]DAP/g
Concentration of Radioactivity in Kidney (cortex) (single IV 2 mg/kg, 24 Hours): 40820 ng Equivalents [^14C]DAP/g
Concentration of Radioactivity in Kidney (medulla) (single IV 2 mg/kg, 24 Hours): 2011 ng Equivalents [^14C]DAP/g
Concentration of Radioactivity in Large intestinal contents (single IV 2 mg/kg, 24 Hours): 1801 ng Equivalents [^14C]DAP/g

— patent US9999690B2, “Labeled compounds and methods of imaging, diagnosing cartilage disorders and diseases, and monitoring cartilage health using labeled and unlabeled compounds” (Perosphere Inc., priority 2013, dated 2018)
